Test results from paper PMC5801568, “Liquid chromatography–tandem mass spectrometry for the simultaneous quantitation of ceftriaxone, metronidazole and hydroxymetronidazole in plasma from seriously ill, severely malnourished children” (Wellcome Open Research, 2018).

Tests used:
[1] = Bench-top (short term) stability in matrix at room temperature; format: physicochemical, human; conditions: 8 h, n=5
Procedure: (§1) Stability (ST%) studies were evaluated via sample and solution concentrations, where:
(§2) ST% is the stability of the chemical compound in the sample over the period of time. c 0 is the initial concentration, determined without introducing any extra pauses in the analysis process. c t is the concentration obtained after the storage period with time t.
Bench-top stability was evaluated by keeping plasma samples at low and high quality control levels at ambient temperatures (< 28°C) for at least 8h then processed and analyzed. Selected ambient temperature covered the temperature range for study samples, as ambient temperatures remained < 28°C.

[2] = Freeze-thaw stability (3 cycles at -20°C); format: physicochemical, human; conditions: 3 freeze-thaw cycles at -20°C, n=5
Procedure: as §1, §2
Spiked plasma samples were subjected to three freeze-thaw cycles at -20°C and the analytes concentrations assessed after the third cycle. This was done also for plasma ultra-filtrate spiked with CEF to assess the stability of free ceftriaxone in calibrators and quality control samples.

[3] = Auto-sampler (processed sample) stability; format: physicochemical, human; conditions: 24 h at 18°C, n=5
Procedure: as §1, §2
Processed sample stability was assessed by letting the samples stay in the autosampler at 18°C for 24h and then they were analyzed the following day. This was done to ensure data integrity in case of equipment failure and initiation of a re-run.

[4] = Long-term stability at -20°C; format: physicochemical, human; conditions: 90 days at -20°C, n=5
Procedure: as §1, §2
Long term stability of the analytes was studied over a period that covered the duration of storage of the study samples from collection to the last sample analysis, this ensured that the integrity of study samples was not compromised over the period of storage. To investigate long term stability, two sets of sample aliquots were prepared at concentrations corresponding to low and high quality control levels. The first set was processed and analyzed at day 1 and the second set after 90 days of storage at -20°C. The analyte concentrations in the plasma and ultra-filtrate samples at 90 days of storage was compared with those obtained on day 1 to determine the percentage stability.

[5] = Sub-stock solution stability at -20°C; format: physicochemical; conditions: solution in 20% methanol, 28 days at -20°C; nominal conc. MET 50, CEF 300, MET-OH 30 µg/mL
Procedure: Stock solutions of CEF (5 mg of the base/mL), MET and MET-OH (both 1 mg/mL) were prepared by dissolving an appropriate amount of each compound in 20% methanol. The stock solutions were further serially diluted with 20% methanol to make working standard solutions used to spike the blank plasma to produce 0.4, 12, 24, 48, 96,150,220, 300 µg/mL CEF and 1.2, 120, 240 µg/mL QCs; 0.05, 1.0, 2.0, 4.0, 8.0, 16.0, 32.0, 50 µg/mL MET and 0.15, 20, 40 µg/mL QCs; 0.02, 0.8, 1.6, 3.2, 6.4, 13, 20, 30 µg/mL MET-OH and 0.06, 12, 24 µg/mL QCs. Stock solution of CEFU (IS) was prepared by dissolving appropriate amount of the compound in acetonitrile, the stock solution was serially diluted with acetonitrile to make working standard solutions of 1.25 µg/mL and 1 µg/mL. All the stock solutions were stored at -20°C, protected from light (in amber sample vials) and used within three months.
Sub-stock solution stability was evaluated for CEF, MET and MET-OH, by comparing the response generated from the same solution at preparation and after being stored at -20°C for a period of 28 days. […] The stability was reported as coefficient of variation between the initial concentration and the concentration at day 28.

[6] = Plasma concentrations in hospitalized children with severe acute malnutrition (LC-MS/MS); format: in vivo; conditions: human, other: intravenous (CEF) and oral (MET), one study participant, oral MET 7.5 mg/Kg given 15 min before; for concentration at 5 min: 5 min after ceftriaxone IV (80 mg/kg); for concentration at 30 min: 30 min after ceftriaxone IV (80 mg/kg)
Procedure: Total drug. To a 50 µL aliquot of plasma (blank, standard, quality control, or patient sample) 200 µL of internal standard (CEFU; of a 1.25 µg/mL solution in acetonitrile) was added. The 1.5 mL polypropylene tubes were vortex-mixed for 3 minutes to precipitate the plasma proteins, followed by centrifugation (4000 x g; 10 min, 4°C). The supernatant (100 µL) was transferred into another clean 1.5 mL polypropylene tube and diluted with 400 µL of 20% methanol in water. The samples were vortex-mixed for 3 minutes and submitted for analysis by LC-MS/MS.
The validated method was successfully applied to a pharmacokinetic study of CEF, MET, MET-OH and unbound ceftriaxone in hospitalized children with complicated severe acute malnutrition (SAM) following an oral administration of MET and intravenous administration of CEF over the course of 72 hours.
81 hospitalized children with SAM and requiring IV antibiotics according to WHO and national guidelines were recruited (after obtaining ethical approval from the Kenya Medical Research Institute Scientific and Ethics Review Unit, approval number: KEMRI/SERU/CGMR-C023-3161 and informed consent from the parents/guardians) and treated with an oral dose of 7.5mg/Kg MET (Flagyl ®oral suspension, 200 mg/5 mL) three times daily and IV injection of 80 mg/kg CEF (Ceftriaxone Rocephin ®, 250 mg) once daily 15 min after metronidazole dose. Blood samples (3.0 mL) were collected into Li-heparinized tubes, a pre-dose sample was taken before administering the drugs. Further sampling at 5, 30, 60 min after ceftriaxone dose and 2, 4, and 8 h after metronidazole dose. The sampling plan was such that each patient had only three blood draws after the base-line sample. The blood was centrifuged (3000 rpm; 5 min), plasma separated and stored at -80°C until analysis time.

[7] = design: method as in Wong et al. [17]; conditions: ref Wong et al. [17]; cited from earlier work
[8] = design: method as in Silva et al. [12]; conditions: over a period of 48h; ref Silva et al. [12]; cited from earlier work
[9] = design: method as in Ilomuanya et al. [15]; conditions: after the fourth freeze/thaw cycle; ref Ilomuanya et al. [15]; cited from earlier work
[10] = design: method as in Ilomuanya et al. [15]; conditions: at 72h; ref Ilomuanya et al. [15]; cited from earlier work
[11] = plasma ultra-filtrate, spiked conc. 1.2 µg/mL
[12] = plasma ultra-filtrate, spiked conc. 240 µg/mL
[13] = plasma, high QC spiked conc. (MET 40, CEF 240, MET-OH 24 µg/mL)
[14] = plasma, low QC spiked conc. (MET 0.15, CEF 1.2, MET-OH 0.06 µg/mL)
[15] = processed plasma samples, high QC spiked conc. (MET 40, CEF 240, MET-OH 24 µg/mL)
[16] = processed plasma samples, low QC spiked conc. (MET 0.15, CEF 1.2, MET-OH 0.06 µg/mL)

Row | SMILES | Benchtop stability in matrix ST % [1, 13] [%] | Benchtop stability in matrix ST % [1, 14] [%] | Freeze-thaw stability ST % [2, 13] [%] | Freeze-thaw stability ST % [2, 14] [%] | Auto-sampler stability ST % [3, 15] [%] | Auto-sampler stability ST % [3, 16] [%] | Long-term stability ST % [4, 13] [%] | Long-term stability ST % [4, 14] [%] | Sub-stock solution stability ST % [5] [%] | concentration at 5 min [6] [µg/mL] | concentration at 30 min [6] [µg/mL] | further results
1 | CO/N=C(\C(=O)N[C@@H]1C(=O)N2C(C(=O)O)=C(CSc3nc(=O)c(=O)[nH]n3C)CS[C@H]12)c1csc(N)n1 [CEF, Ceftriaxone sodium] | 96.0 | 98.1 | 95.3 | 95.8 | 95.4 | 90.6 | 90.6 | 92.2 | 96.1 | 266 | 74.4 | Benchtop stability in matrix ST % [1, 11]: 99.8%; Benchtop stability in matrix ST % [1, 12]: 105.8%; Freeze-thaw stability ST % [2, 11]: 93.0%; Freeze-thaw stability ST % [2, 12]: 92.2%; Auto-sampler stability ST % ([3]; processed plasma ultra-filtrate, spiked conc. 1.2 µg/mL): 98.4%; Auto-sampler stability ST % ([3]; processed plasma ultra-filtrate, spiked conc. 240 µg/mL): 94.2%; Long-term stability ST % [4, 11]: 94.4%; Long-term stability ST % [4, 12]: 92.4%; Average protein binding [7]: 89.5%
2 | Cc1ncc([N+](=O)[O-])n1CCO [MET, metronidazole] | 98.3 | 105.8 | 93.5 | 96.1 | 93.7 | 101.5 | 93.8 | 95.2 | 95.8 | 2.54 | 1.99 | Mean stability [8]: 93.6% - 100.6%; Concentration remaining after freeze/thaw [9]: < 90%; Autosampler stability [10]: 40.6%–58.7%
3 | O=[N+]([O-])c1cnc(CO)n1CCO [MET-OH, 1-(2-hydroxyethyl)-2-hydroxymethyl-5-nitroimidazole] | 102.2 | 99.5 | 100.7 | 97.2 | 92.8 | 103.3 | 92.0 | 99.1 | 95.4 | 0.13 | 0.66 | 
